According to US7217739B2, “Method for inducing cell death with carbonyl scavengers” (Arizona Board of Regents on behalf of the University of …, priority 2004, dated 2007):

Legend:
human A431 cells = experiment: Apoptosis in squamous cell carcinoma line A431; type: cell-based; conditions: 10 mM, 24 hours
Experimental: In each case, 10 mM of the test compound was used, over 24 hours, on human A431 cells, and apoptosis was measured as described, supra.

[1] = tested on: human melanoma line A-375; experiment: Apoptosis by annexin V-FITC/propidium iodide flow cytometry, A-375 melanoma; type: cell-based
Experimental: (§1) The murine melanoma cell line B16 was used, as were three human melanoma lines, i.e., G-361, A-375, and LOX. Samples of the cells were exposed to 10 mM of D-penicillamine continuously, over a 24 hour period. Apoptosis was measured using a standard assay, i.e., flow cytometric staining using annexin V-FITC/propidium iodide. As a control, normal human skin fibroblasts, i.e., “CF3” cells, were used.
(§2) Malignant human melanoma cells A375, and normal fibroblasts (CF3), were tested, using 10 mM of MEC, with 24 hours of exposure.

[2] = tested on: A375 melanoma cells in collagen matrix; experiment: Dermal melanoma reconstruct, melanoma cells; type: cell-based, human; conditions: 12.5 mM; A375 and CF3 cells embedded in a collagen matrix
Source text: (§3) A dermal melanoma reconstruct was made, where both CF3 fibroblast and A375 melanoma cells were embedded in a collagen matrix. Seventy two hours after “seeding” in the matrix, the melanoma cells have proliferated extensively, as the controls show, in FIG. 7.

[3] = tested on: CF3 fibroblast in collagen matrix; experiment: Dermal melanoma reconstruct, fibroblast network; type: cell-based, human; conditions: 12.5 mM; A375 and CF3 cells embedded in a collagen matrix
Source text: as §3

[4] = tested on: murine melanoma cell line B16; experiment: Apoptosis by annexin V-FITC/propidium iodide flow cytometry, B16 melanoma; type: cell-based; conditions: B16 cells; continuous 24 hour exposure; D-penicillamine 10 mM
Experimental: as §1

[5] = tested on: normal human skin fibroblasts CF3; experiment: Apoptosis by annexin V-FITC/propidium iodide flow cytometry, normal CF3 fibroblasts; type: cell-based
Experimental: as §1, §2

[6] = tested on: Human HeLa cervical adenocarcinoma cells; experiment: Apoptosis in HeLa cervical adenocarcinoma cells; type: cell-based
Experimental: The efficacy of the compounds on other cancers, epithelial cancers in particular, was determined. Human HeLa cervical adenocarcinoma cells were used, and tested with D-penicillamine, at 10 mM, and aminoguanidine, at 25 mM.

[7] = tested on: human melanoma cell line G-361; experiment: Apoptosis by annexin V-FITC/propidium iodide flow cytometry, G-361 melanoma; type: cell-based; conditions: G-361 cells
Experimental: as §1
The compound D-penicillamine (D-P), aminoguanidine (AG), N-acetyl-D-penicillamine (NAP), N-acetyl-L-cysteine (NAC), and penicillamine disulfide (PSS) were tested. D-P, NAC and NAP are known as antioxidants. D-P and aminoguanidine are known as carbonyl scavengers.

[8] = tested on: premalignant, immortalized human keratinocytes HaCaT; experiment: Apoptosis in premalignant immortalized keratinocytes; type: cell-based; conditions: HaCaT cells; 12.5 mM; continuous over 24 hours
Experimental: In these experiments, D-penicillamine was added, at a concentration of 12.5 mM, to premalignant, immortalized human keratinocytes, or “HaCaT” cells, and the exposure was Continuous over 24 hours.

human melanoma line LOX = experiment: Apoptosis by annexin V-FITC/propidium iodide flow cytometry, LOX melanoma; type: cell-based; conditions: LOX cells; continuous 24 hour exposure; D-penicillamine 10 mM
Experimental: as §1

[9] = Example 6, concentration not given

Structure (SMILES): COC(=O)[C@H](N)C(C)(C)S [D-penicillamine methyl ester]
- induction of apoptosis (human A431 cells): induction of apoptosis
- induction of apoptosis (human A431 cells; listed as D-P—OCH3): stronger apoptotic effect

Structure (SMILES): CC(C)(S)[C@@H](N)C(=O)O [D-penicillamine, 3-mercapto-D-valine]
- induction of apoptosis ([1]; A-375 cells, continuous 24 hour exposure, D-penicillamine 10 mM): apoptosis was induced
- elimination of melanoma cells from dermal melanoma reconstruct [2]: eliminated the melanoma cells
- structure integrity of the fibroblast collagen network [3]: maintained the structure integrity of the fibroblast collagen network
- induction of apoptosis [4]: apoptosis was induced
- induction of apoptosis ([5]; normal CF3 cells, continuous 24 hour exposure, D-penicillamine 10 mM): no change
- induction of apoptosis ([6]; 10 mM): apoptosis inducers
- induction of apoptosis (human A431 cells): induction of apoptosis
- induction of apoptosis [7, 9]: induced apoptosis
- induction of apoptosis ([7]; continuous 24 hour exposure, D-penicillamine 10 mM): apoptosis was induced
- induction of apoptosis [8]: apoptosis is indicated
- induction of apoptosis (human melanoma line LOX): apoptosis was induced

Structure (SMILES): CCC(C)(S)[C@H](N)C(=O)O (stereo partly drawn) [MEC, 3-methyl-3-ethyl-L-cysteine]
- induction of apoptosis ([1]; A375 cells, 10 mM of MEC, 24 hours of exposure): Pronounced induction of apoptosis
- induction of apoptosis ([5]; normal CF3 fibroblasts, 10 mM of MEC, 24 hours of exposure): none was observed

Structure (SMILES): N=C(N)NN [aminoguanidine]
- induction of apoptosis ([6]; 25 mM): apoptosis inducers
- induction of apoptosis [7, 9]: induced apoptosis
